Measured values reported in patent US20250382298A1, “NITROGEN-CONTAINING COMPOUND AND USE THEREOF” (SUZHOU GENHOUSE BIO CO., LTD., priority 2022, published 2025).
pIC50: −log10 of the molar value.

Legend:
hERG potassium channel = hERG potassium channel (Homo sapiens (Human), UniProt Q12809); test: hERG whole-cell patch clamp (Qpatch) in HEK293 cells; assay type: cell-based; details: top concentration 30 μM
Description: HEK293 cells were cultured in a DMEM medium containing 10% fetal bovine serum and 0.8 mg/mL G418 at 37° C. with 5% CO2. The cells were digested by TrypLE™ Express and then centrifuged. The cell density was adjusted to 2×10^6 cells/ml. The cells were then gently mixed for 15-20 min using a shaker equilibrated at room temperature, and subjected to patch clamping on a machine. The medium of the prepared cells was replaced with extracellular fluid. The intracellular fluid and the extracellular fluid were taken from the fluid pool, and added to the intracellular fluid pool and the cell and test substance pool of the QPlate chip, respectively. The voltage stimulation of the whole-cell hERG potassium current was recorded by the whole-cell patch clamp, and the experimental data was collected and stored by Qpatch. The test compound was 3-fold diluted starting from 30 μM to obtain 6 concentration points, each for two administrations over a period of at least 5 min. The current detected in compound-free extracellular fluid for each cell served as its own control group, and the detection was repeated at least twice independently using two cells per concentration. All electrophysiological experiments were performed at […].
For data analysis, the current after the action of each drug concentration and the current of the blank control were standardize
and then the inhibition rate corresponding to each drug concentration was calculated
The mean and standard error were calculated for each concentration, and the half maximal inhibitory concentration of each compound was calculated:
The dose-dependent effect was subjected to non-linear fitting using the above equation, where Y represents the inhibition rate, C represents the concentration of the test substance, IC50 is the half maximal inhibitory concentration, and HillSlope represents the Hill coefficient. Curve fitting and calculation of IC50 were performed using the Graphpad software.

[1] = test system: Human colon cancer HT-29 cells; test: Pharmacodynamic experiment in mice, subcutaneous HT-29 tumor; assay type: in vivo; details: 20 mpk BID intragastric, after 16 days of administration, HT-29 subcutaneous tumor in mice
Description: Human colon cancer HT-29 cells were cultured in monolayer in vitro under the following conditions: DMEM medium containing 10% fetal bovine serum and 1% penicillin and streptomycin, at 37° C. with 5% CO2. The cells were digested with trypsin three times a week for passaging. When the saturation degree of the cells was 80%-90%, the cells were collected, counted, and inoculated, 0.1 mL (1×10^6 cells) of HT-29 cells were subcutaneously inoculated on the tight back of each mouse. On day 11 after inoculation of the cells, the mean tumor volume reached 325 mm^3. The mice were randomly grouped for administration (the animals were divided into an administration group and a control group, with 6 animals in each group). The day of grouping was defined as d0, and intragastric administration was started on d1. The administration was performed twice daily at an administration volume of 10 mL/kg. Vehicle control was adminstered to the control group. The tumor volume was measured 2-3 times per week, and meanwhile, the mice were weighed and the data were recorded; daily observations were made to record the body surface signs of the mice. After the experiment was completed, the tumors were removed, weighed, and photographed for recording.
Calculation formula for tumor volume: […]

Sequence of hERG potassium channel (Q12809 whole entry): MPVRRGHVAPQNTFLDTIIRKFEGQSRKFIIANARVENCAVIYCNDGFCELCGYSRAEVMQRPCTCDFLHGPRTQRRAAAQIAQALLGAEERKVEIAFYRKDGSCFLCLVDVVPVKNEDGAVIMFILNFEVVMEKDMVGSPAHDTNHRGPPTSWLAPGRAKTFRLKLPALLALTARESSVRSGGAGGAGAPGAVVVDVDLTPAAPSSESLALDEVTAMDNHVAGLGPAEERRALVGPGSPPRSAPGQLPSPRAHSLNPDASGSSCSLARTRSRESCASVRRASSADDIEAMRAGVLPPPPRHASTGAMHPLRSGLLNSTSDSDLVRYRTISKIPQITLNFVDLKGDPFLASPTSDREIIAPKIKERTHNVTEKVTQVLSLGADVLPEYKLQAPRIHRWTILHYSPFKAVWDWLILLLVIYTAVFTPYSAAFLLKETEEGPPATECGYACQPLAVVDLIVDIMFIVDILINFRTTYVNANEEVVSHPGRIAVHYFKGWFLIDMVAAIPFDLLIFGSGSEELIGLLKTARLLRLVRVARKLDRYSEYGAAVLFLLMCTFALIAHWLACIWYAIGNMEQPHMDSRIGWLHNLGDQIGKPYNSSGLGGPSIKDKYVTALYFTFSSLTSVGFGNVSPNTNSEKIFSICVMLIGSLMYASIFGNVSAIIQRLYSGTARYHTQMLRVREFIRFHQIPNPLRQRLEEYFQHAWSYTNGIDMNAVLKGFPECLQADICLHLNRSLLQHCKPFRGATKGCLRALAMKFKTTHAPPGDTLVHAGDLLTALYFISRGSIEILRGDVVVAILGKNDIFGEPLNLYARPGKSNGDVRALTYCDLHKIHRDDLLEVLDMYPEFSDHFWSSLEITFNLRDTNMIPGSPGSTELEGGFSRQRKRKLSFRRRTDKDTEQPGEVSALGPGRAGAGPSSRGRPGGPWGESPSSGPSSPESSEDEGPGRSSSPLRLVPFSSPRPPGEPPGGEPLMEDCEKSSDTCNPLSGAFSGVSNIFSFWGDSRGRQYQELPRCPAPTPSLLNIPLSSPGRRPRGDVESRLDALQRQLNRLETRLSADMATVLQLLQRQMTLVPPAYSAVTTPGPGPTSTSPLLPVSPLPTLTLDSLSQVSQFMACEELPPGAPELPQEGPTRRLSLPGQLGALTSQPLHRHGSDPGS

SMILES	pIC50 (hERG potassium channel)	TGI [1] [%]
O=C(Nc1cc2ccccc2c(N2CCC(F)(F)CC2)n1)c1ccc(NS(=O)(=O)CCO)cc1N1CCC2(CC1)CC2 [Compound 6]	< 4.52	
O=C(Nc1cn2ccnc2c(N2CCC(F)(F)CC2)n1)c1ccc(NS(=O)(=O)CCO)cc1N1CCC2(CC1)CC2 [Compound 8]	< 4.52	
CS(=O)(=O)Nc1ccc(C(=O)Nc2cn3ccnc3c(N3CCC(F)(F)CC3)n2)c(N2CC3CCC(C3)C2)c1 [Compound 19]	< 4.52	111.82
O=C(Nc1cc2cccnc2c(N2CCC(F)(F)CC2)n1)c1ccc(NS(=O)(=O)CCO)cc1N1CCC2(CC1)CC2 [Compound 21]	< 4.52	
O=C(Nc1cn2c(F)cnc2c(N2CCC(F)(F)CC2)n1)c1ccc(NS(=O)(=O)CCO)cc1N1CCC2(CC1)CC2 [Compound 34]		105.10
CS(=O)(=O)Nc1ccc(C(=O)Nc2cc3cc[nH]c3c(N3CCC(F)(F)CC3)n2)c(N2CCC3(CC2)CC3)c1 [Compound 47]		108.84
